{"source": "patent US20030044413A1", "about": "“Methods of limiting apoptosis of cells” (Regents of the University of Minnesota, priority 1998, published 2003)", "key": {"[1]": {"system": "isolated rat liver mitochondria", "test": "MPT spectrophotometric assay (mitochondrial swelling)", "conditions": "for effect on DCA-induced MPT / mitochondrial swelling: preincubation (500 μM bile acid or cyclosporine A) before DCA; for mitochondrial swelling with the substance alone: substance alone added to isolated mitochondria", "description": "Isolation of mitochondria and MPT assays. Low calcium liver mitochondria were isolated from male 200-250 g Sprague-Dawley rats by density gradient centrifugation as previously published (Botla et al., J. Pharmacol. Exp. Ther., 272, 930-938 (1995); Walajtys-Rhode et al., J. Biol. Chem., 267, 370-379 (1992); and Sokol et al., Gastroenterology, 99, 1061-1071 (1990)). The mitochondrial fraction was resuspended in 30 ml of wash buffer containing 0.1 M KCl, 5 mM 3-(N-morpholino)-propane sulfonic acid (MOPS), and 1 mM EGTA, at pH 7.4 and centrifuged at 7,000×g for 10 min at 4° C. A final wash was carried out in chelex-100-treated buffer (Bio-Rad Laboratories, Hercules, Calif.) containing no EGTA. The resulting pellet was suspended in 4 ml of chelex--100-treated buffer containing 125 mM sucrose, 5 mM HEPES, 50 mM KCl and 2 mM KH2PO4. The usual yield of mitochondria was approximately 25 mg of protein per gram of liver tissue. Mitochondrial purity was established as previously described (Botla et al., J. Pharmacol. Exp. Ther., 272, 930-938 (1995)). Protein concentrations were determined using the Bio-Rad protein assay kit as specified by the manufacturer.\nMPT was measured spectrophotometrically as described previously (Botla et al., J. Pharmacol. Exp. Ther., 272, 930-938 (1995); Pastorino et al., J. Biol. Chem., 268, 13791-13798 (1993)), during 10 min incubations at 25° C. using mitochondria (1 mg of protein/ml) suspended in 3 ml of a chelex-100-treated buffer containing 0.1 M NaCl, 10 mM MOPS, pH 7.4. Swelling was monitored at 540 nm in a Beckman DU 64 spectrophotometer. Basal values of mitochondria absorbance were measured for 5 min, and the optical density was monitored another 5 min after addition of 200 μM DCA or 80 μM phenylarsine oxide (PhAsO; Sigma Chemical Co.). For coincubation studies, mitochondria were preincubated with 500 μM UDCA or hyodeoxycholic acid for 5 min at 25° C. prior to the assay.\nSpectrophotometric and Fluorimetric Assays of MPT. The MPT was assessed using a spectrophotometric assay measuring high amplitude rapid changes in mitochondrial volume, and a fluorimetric assay quantitating the release of calcein from calcein-loaded mitochondria. The MPT was measured spectrophotometrically as previously described (Pastorino, J. Biol. Chem., 268, 13791-13798 (1993); Botla et al., J. Pharmacol. Exp. Ther., 272, 930-938 (1995)). Briefly, mitochondria (3 mg protein) were incubated in 3 ml of chelex-100-treated respiration buffer (0.1 M NaCl, 10 mM MOPS, pH 7.4) for 10 min at 25° C. and monitored at 540 nm in a Beckman DU 64 spectrophotometer. Basal values of mitochondrial absorbance were measured for 5 min, and the optical density was monitored for an additional 5 min after addition of increasing concentrations of DCA (50-200 μM) or 80 μM phenylarsine oxide (PhAsO; Sigma Chemical Co., St. Louis, Mo.). For the coincubation studies, mitochondria were preincubated with UDCA (100-500 μM), or 500 μM hyodeoxycholic acid (HDCA; Sigma Chemical Co.) for 5 min at 25° C. prior to initiation of the assay.\nMeasurement of MPT and determination of cytochrome c content in supernatants and mitochondrial pellets after MPT. The MPT was assessed using a spectrophotometric assay measuring high amplitude rapid changes in mitochondria volume. Mitochondria (1 mg protein) were incubated in 1 ml of chelex-100-treated respiration buffer (0.1 M NaCl, 10 mM MOPS, pH 7.4) for 10 min at 25° C. and swelling was monitored at 540 nm in a Beckman DU 64 spectrophotometer. Malate and glutamate (1 mM) were added to initiate respiration, and 3 min later rotenone (5 μM), an inhibitor of complex I of the respiratory chain, was also added to the supension. Basal values of mitochondria absorbance were measured for 5 min, and the optical density was monitored for an additional 5 min after addition 200 μM DCA or 80 μM phenylarsine oxide (PhAsO; Sigma Chemical Co.). […]"}, "[2]": {"system": "isolated rat liver mitochondria", "test": "FACS analysis of ΔΨm and ROS in isolated mitochondria", "description": "Measurement of ΔΨm and ROS Production by FACS Analysis. ΔΨm and ROS production were measured by FACScan (Becton Dickinson, San Jose, Calif.) analysis. Freshly isolated rat mitochondria were resuspended in respiration buffer (50-100 μg/ml) and then incubated for 15 min at 37° C. with 50 nM 3,3′-dihexyloxacarbocyanine iodide [DiOC6(3)],2 μM dihydroethidium (HE), or 5 μM 2′,7′-dichlorofluorescin diacetate (H2DCFDA; Molecular Probes Inc.) (Cathcart et al., Anal. Biochem., 134, 111-116 (1983); Carter et al., J. Leukoycte Biol, 55, 253-258 (1994); Zamzami et al., J. Exp. Med., 181 1661-1672 (1995)). Mitochondria were then treated with DCA (100 μM) or PhAsO (80 μM) for 5 min and analyzed by cytofluorometry. For the coincubation studies, mitochondria were preincubated with UDCA (500 μM) or HDCA (500 μM) prior to the addition of either DCA or PhAsO."}, "[3]": {"conditions": "100 μM DCA alone or 500 μM UDCA alone"}}, "note": "Several values for one entry are separate records, joined by “and”; a condition that tells them apart may be missing. Equal entries are not always repeated. Entries after “also recorded” stand apart in the source; their conditions may differ.", "data": [{"compound": "C[C@H](CCC(=O)O)[C@H]1CC[C@H]2[C@@H]3CC[C@@H]4C[C@H](O)CC[C@]4(C)[C@H]3C[C@H](O)[C@]12C", "note": "[DCA, deoxycholic acid]", "values": [{"measurement": "concentration at which high amplitude mitochondrial swelling was detected (as low as)", "setting": "[1]", "result": 50, "unit": "µM"}, {"measurement": "MPT, increase over control", "setting": "[1]; 50 μM DCA", "result": 4, "unit": "fold"}, {"measurement": "other ROS (peroxides, H2DCFDA)", "setting": "[2]; 100 μM DCA alone", "result": "21.7±3.5", "unit": "%"}, {"measurement": "superoxide anion production", "setting": "[2]; [3]", "result": "20.7±2.4", "unit": "%"}, {"measurement": "percentage of low ΔΨm", "setting": "[2]; 100 μM DCA alone, 5 min", "result": "16.0±1.8", "unit": "%"}]}, {"compound": "C[C@H](CCC(=O)O)[C@H]1CC[C@H]2[C@@H]3[C@@H](O)C[C@@H]4C[C@H](O)CC[C@]4(C)[C@H]3CC[C@]12C", "note": "[UDCA, ursodeoxycholic acid]", "values": [{"measurement": "swelling", "setting": "[1]; 100 μM UDCA 5 min before 200 μM DCA", "result": "26.8±6.3", "unit": "%"}, {"measurement": "inhibition of DCA-induced MPT (mitochondrial swelling)", "setting": "[1]; 200 μM DCA, pretreatment 500 μM UDCA or 5 μM cyclosporine A", "result": "> 40% and 43.1±1.6%"}, {"measurement": "swelling", "setting": "[1]; 500 μM UDCA 5 min before 200 μM DCA", "result": "16.9±2.3", "unit": "%"}, {"measurement": "reduction of ROS production of peroxides", "setting": "[2]; 80 μM PhAsO + 500 μM UDCA", "result": 55, "unit": "%"}, {"measurement": "reduction of ROS production of superoxide anions", "setting": "[2]; 80 μM PhAsO + 500 μM UDCA", "result": 100, "unit": "%"}, {"measurement": "reduction of ΔΨm disruption", "setting": "[2]; 80 μM PhAsO + 500 μM UDCA versus PhAsO alone", "result": "approximately 65%"}, {"measurement": "other ROS (peroxides, H2DCFDA)", "setting": "[2]; 100 μM DCA + 500 μM UDCA", "result": "14.7±1.4", "unit": "%"}, {"measurement": "percentage of low ΔΨm", "setting": "[2]; 100 μM DCA + 500 μM UDCA", "result": "10.3±0.7", "unit": "%"}, {"measurement": "superoxide anion production", "setting": "[2]; 100 μM DCA + 500 μM UDCA", "result": "15.9±1.5", "unit": "%"}, {"measurement": "superoxide anion production", "setting": "[2]; [3]", "result": "11.8±2.8", "unit": "%"}]}, {"compound": "C[C@H](CCC(=O)O)[C@H]1CC[C@H]2[C@@H]3C[C@H](O)[C@@H]4C[C@H](O)CC[C@]4(C)[C@H]3CC[C@]12C", "note": "[hyodeoxycholic acid]", "values": [{"measurement": "effect on DCA-induced MPT / mitochondrial swelling", "setting": "[1]", "result": "nor did it have a protective effect"}, {"measurement": "effect on DCA-induced MPT / mitochondrial swelling", "setting": "[1]; listed as HDCA", "result": "did not decrease DCA-induced mitochondrial swelling"}, {"measurement": "mitochondrial swelling with the substance alone", "setting": "[1]", "result": "No significant mitochondrial swelling"}, {"measurement": "effect on DCA-mediated changes in ΔΨm and ROS production", "setting": "[2]; 100 μM DCA, 500 μM bile acid pretreatment, listed as HDCA", "result": "did not prevent DCA-mediated changes; also recorded: does not significantly inhibit"}, {"measurement": "ΔΨm and ROS with HDCA alone", "setting": "[2]; 500 μM HDCA alone", "result": "no changes were observed"}]}, {"compound": "C=C1[C@@H](O)[C@@H]2O[C@]3(CC[C@H](/C=C/[C@@H](C)[C@@H]4CC(C)=C[C@@]5(O[C@H](C[C@@](C)(O)C(=O)O)CC[C@H]5O)O4)O3)CC[C@H]2O[C@@H]1[C@@H](O)C[C@H](C)[C@H]1O[C@@]2(CCCCO2)CC[C@H]1C", "note": "[okadaic acid]", "values": [{"measurement": "mitochondrial swelling with the substance alone", "setting": "[1]", "result": "did not induce mitochondria swelling"}]}, {"compound": "TGF-β1: transforming growth factor β1, nonmembrane damaging inducer of apoptosis", "values": [{"measurement": "mitochondrial swelling with the substance alone", "setting": "[1]", "result": "did not induce mitochondria swelling"}]}]}
